According to patent EP2518054A1, “AMIDE COMPOUND” (Takeda Pharmaceutical Company Limited, priority 2009, dated 2011):

Legend:
[1] = biological target: T1, human GPR52 (Homo sapiens, UniProt Q9Y2T5); test: Increase of intracellular cAMP concentration in human GPR52-expressing CHO cell (AlphaScreen cAMP assay); type: cell-based; conditions: human GPR52-expressing CHO(dhfr-) cells; for activity at 1 µM: CHO, 1µM test compound, 100% = cAMP with 1 µM Reference Example 79, 0% = DMSO, 37°C, 30 min, read-out: GPR52 agonist activity (%); for EC50: concentration of the test compound at which it shows 50% activity, read-out: GPR52 agonist activity EC50
T1 construct: expressed in transfected cells; host or cells: CHO(dhfr-) cells
Procedure, shortened: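 1×10^4 GPR52-expressing CHO(dhfr-) cells incubated 30 min at 37 °C with compound (10^-5 µM–10 µM) in HBSS, 0.5% BSA, 100 µM IBMX, 100 µM Ro20-1724, 5 mM HEPES pH 7.55; cAMP read by AlphaScreen. Agonism normalized to 1 µM reference agonist (100%) and DMSO (0%).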

[2] = system: methamphetamine-induced locomotor hyperactivity in mice; test: Inhibition test of methamphetamine-induced locomotor hyperactivity; type: in vivo; conditions: test compound 10 mg/kg body weight orally, male ICR mice; methamphetamine 2 mg/kg s.c. 60 min later; locomotor activity counted over 150 min, versus vehicle group
Procedure: Inhibition test of methamphetamine-induced locomotor hyperactivity
The compound of the present invention can be evaluated by assessing its capacity to inhibit methamphetamine-induced locomotor hyperactivity in mice. The method of Okuyama et al (Life Science, Vol. 65, p. 2109-2125 (1999)) was modified and used for testing the inhibition of methamphetamine-induced locomotor hyperactivity.
Locomotor activity was measured using a 32-channel locomotor activity measurement device MDC-LT (BrainScience Idea Co., Ltd.), which emits infrared beams from the top of a cage (30 x 40 x 20 cm). 6- to 8-Week-old male ICR mice were acclimated for at least 45 min in the measurement cages, and then either test compound (10 mg/kg body weight) dissolved in vehicle (0.5% aqueous methylcellulose solution) or the vehicle alone was orally administered. This oral administration was followed 60 min later by subcutaneous administration of methamphetamine (2 mg/kg body weight).
The number of times the laboratory animals passed through the infrared beams emitted inside the measurement cages in 150 min after administration of the test compound or vehicle was counted to quantify locomotor activity. The methamphetamine-induced locomotor hyperactivity inhibition rate (activity inhibition rate (%)) was calculated by the following equation. Activity inhibition rate (%) = {1-(locomotor activity of test compound treatment group after treatment with methamphetamine÷locomotor activity of vehicle treatment group after treatment with methamphetamine)}x 100 [formula] The results are shown in Table 3

T1 sequence (Q9Y2T5 whole entry): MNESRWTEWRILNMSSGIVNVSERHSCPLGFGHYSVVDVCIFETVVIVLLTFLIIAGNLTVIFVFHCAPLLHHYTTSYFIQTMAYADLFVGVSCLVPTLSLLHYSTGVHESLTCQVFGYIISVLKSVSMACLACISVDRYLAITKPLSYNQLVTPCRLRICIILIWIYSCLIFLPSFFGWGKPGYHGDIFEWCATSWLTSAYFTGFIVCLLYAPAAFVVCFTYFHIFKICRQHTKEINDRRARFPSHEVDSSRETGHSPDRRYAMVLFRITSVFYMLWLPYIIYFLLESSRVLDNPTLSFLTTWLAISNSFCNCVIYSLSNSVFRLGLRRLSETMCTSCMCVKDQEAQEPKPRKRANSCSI

| Structure (SMILES) | activity at 1 µM [1] [%] | EC50 [1] [nM] | Activity inhibition rate (%) [2] [%] |
| --- | --- | --- | --- |
| COCCNC(=O)c1cn(-c2cccc3cc(Cc4cccc(C(F)(F)F)c4)sc23)nc1C [Example 14, N-(2-methoxyethyl)-3-methyl-1-[2-[3-(trifluoromethyl)benzyl]-1-benzothiophen-7-yl]-1H-pyrazole-4-carboxamide] | 87 | 14 | 53 |
| Cc1nn(-c2cccc3cc(Cc4cccc(C(F)(F)F)c4)sc23)cc1C(=O)NCCO [Example 15, N-(2-hydroxyethyl)-3-methyl-1-[2-[3-(trifluoromethyl)benzyl]-1-benzothiophen-7-yl]-1H-pyrazole-4-carboxamide] | 102 | 5.7 | 48 |
| Cc1nn(-c2cccc3cc(Cc4cccc(C(F)(F)F)c4)sc23)cc1C(N)=O [Example 17, 3-methyl-1-[2-[3-(trifluoromethyl)benzyl]-1-benzothiophen-7-yl]-1H-pyrazole-4-carboxamide] | 96 | 11 | 43 |
| Cc1nn(-c2ccc(F)c3cc(Cc4cccc(C(F)(F)F)c4)sc23)c(C)c1C(=O)NCC(N)=O [Example 58, N-(2-amino-2-oxoethyl)-1-[4-fluoro-2-[3-(trifluoromethyl)benzyl]-1-benzothiophen-7-yl]-3,5-dimethyl-1H-pyrazole-4-carboxamide] | 92 | 40 | 47 |
| Cc1nn(-c2cccc3cc(Cc4cccc(C(F)(F)F)c4)sc23)c(CO)c1C(=O)NCCO [Example 65, N-(2-hydroxyethyl)-5-(hydroxymethyl)-3-methyl-1-[2-[3-(trifluoromethyl)benzyl]-1-benzothiophen-7-yl]-1H-pyrazole-4-carboxamide] | 99 | – | 51 |
| Cc1nn(-c2cccc3sc(Cc4cccc(C(F)(F)F)c4)cc23)c(C)c1C(=O)NCC(N)=O [Example 105, N-(2-amino-2-oxoethyl)-3,5-dimethyl-1-[2-[3-(trifluoromethyl)benzyl]-1-benzothiophen-4-yl]-1H-pyrazole-4-carboxamide] | 94 | – | – |

The next lines start with results.

| activity at 1 µM [1] [%] | EC50 [1] [nM] | Structure (SMILES) | Activity inhibition rate (%) [2] [%] |
| --- | --- | --- | --- |
| 97 | – | Cc1nn(-c2cccc3sc(Cc4cccc(C(F)(F)F)c4)cc23)c(C)c1C(=O)NCCO [Example 106, N-(2-hydroxyethyl)-3,5-dimethyl-1-[2-[3-(trifluoromethyl)benzyl]-1-benzothiophen-4-yl]-1H-pyrazole-4-carboxamide] | – |
| 100 | – | Cc1nn(-c2cccc3sc(Cc4cc(F)cc(Cl)c4)cc23)c(C)c1C(=O)NCC(N)=O [Example 107, N-(2-amino-2-oxoethyl)-1-[2-(3-chloro-5-fluorobenzyl)-1-benzothiophen-4-yl]-3,5-dimethyl-1H-pyrazole-4-carboxamide] | – |
| 93 | – | Cc1nn(-c2cccc3sc(Cc4cc(F)cc(Cl)c4)cc23)c(C)c1C(=O)NCCO [Example 108, 1-[2-(3-chloro-5-fluorobenzyl)-1-benzothiophen-4-yl]-N-(2-hydroxyethyl)-3,5-dimethyl-1H-pyrazole-4-carboxamide] | – |
| 89 | – | Cc1nn(-c2cccc3sc(Cc4cc(F)cc(Cl)c4)cc23)c(C)c1C(N)=O [Example 109, 1-[2-(3-chloro-5-fluorobenzyl)-1-benzothiophen-4-yl]-3,5-dimethyl-1H-pyrazole-4-carboxamide] | – |
| 94 | – | Cn1nc(-c2cccc3cc(Cc4cccc(C(F)(F)F)c4)sc23)cc1C(=O)NCC(N)=O [Example 110, N-(2-amino-2-oxoethyl)-1-methyl-3-[2-[3-(trifluoromethyl)benzyl]-1-benzothiophen-7-yl]-1H-pyrazole-5-carboxamide] | – |
| 89 | 38 | Cn1nc(-c2cccc3cc(Cc4cccc(C(F)(F)F)c4)sc23)cc1C(=O)NCCO [Example 111, N-(2-hydroxyethyl)-1-methyl-3-[2-[3-(trifluoromethyl)benzyl]-1-benzathiophen-7-yl]-1H-pyrazole-5-carboxamide] | – |
